# Measurements published in BigSolDB 2.1.
smiles,measurement,setting,value
Nc1ccc(Cl)cc1[N+](=O)[O-],solubility (mole fraction),"in 1,4-dioxane, 288.15 K",0.0282
same,solubility (mole fraction),"in 1,4-dioxane, 293.15 K",0.0337
same,solubility (mole fraction),"in 1,4-dioxane, 298.15 K",0.0405
same,solubility (mole fraction),"in 1,4-dioxane, 303.15 K",0.0509
same,solubility (mole fraction),"in 1,4-dioxane, 308.15 K",0.065
same,solubility (mole fraction),"in 1,4-dioxane, 313.15 K",0.0828
same,solubility (mole fraction),"in 1,4-dioxane, 318.15 K",0.105
same,solubility (mole fraction),"in 1,4-dioxane, 323.15 K",0.133
same,solubility (mole fraction),"in NMP, 278.15 K",0.0539
same,solubility (mole fraction),"in NMP, 283.15 K",0.0605
same,solubility (mole fraction),"in NMP, 288.15 K",0.0737
same,solubility (mole fraction),"in NMP, 293.15 K",0.0887
same,solubility (mole fraction),"in NMP, 298.15 K",0.106
same,solubility (mole fraction),"in NMP, 303.15 K",0.125
same,solubility (mole fraction),"in NMP, 308.15 K",0.142
same,solubility (mole fraction),"in NMP, 313.15 K",0.167
same,solubility (mole fraction),"in NMP, 318.15 K",0.187
same,solubility (mole fraction),"in NMP, 323.15 K",0.223
same,solubility (mole fraction),"in acetonitrile, 278.15 K",0.0327
same,solubility (mole fraction),"in acetonitrile, 283.15 K",0.0373
same,solubility (mole fraction),"in acetonitrile, 288.15 K",0.0442
same,solubility (mole fraction),"in acetonitrile, 293.15 K",0.053
same,solubility (mole fraction),"in acetonitrile, 298.15 K",0.0625
same,solubility (mole fraction),"in acetonitrile, 303.15 K",0.075
same,solubility (mole fraction),"in acetonitrile, 308.15 K",0.09
same,solubility (mole fraction),"in acetonitrile, 313.15 K",0.105
same,solubility (mole fraction),"in acetonitrile, 318.15 K",0.124
same,solubility (mole fraction),"in acetonitrile, 323.15 K",0.145
same,solubility (mole fraction),"in cyclohexane, 278.15 K",0.000163
same,solubility (mole fraction),"in cyclohexane, 283.15 K",0.000195
same,solubility (mole fraction),"in cyclohexane, 288.15 K",0.000267
same,solubility (mole fraction),"in cyclohexane, 293.15 K",0.000354
same,solubility (mole fraction),"in cyclohexane, 298.15 K",0.000468
same,solubility (mole fraction),"in cyclohexane, 303.15 K",0.000613
same,solubility (mole fraction),"in cyclohexane, 308.15 K",0.000773
same,solubility (mole fraction),"in cyclohexane, 313.15 K",0.000983
same,solubility (mole fraction),"in cyclohexane, 318.15 K",0.00124
same,solubility (mole fraction),"in cyclohexane, 323.15 K",0.0016
same,solubility (mole fraction),"in ethanol, 278.15 K",0.013
same,solubility (mole fraction),"in ethanol, 283.15 K",0.0144
same,solubility (mole fraction),"in ethanol, 288.15 K",0.0168
same,solubility (mole fraction),"in ethanol, 293.15 K",0.0194
same,solubility (mole fraction),"in ethanol, 298.15 K",0.0232
same,solubility (mole fraction),"in ethanol, 303.15 K",0.0277
same,solubility (mole fraction),"in ethanol, 308.15 K",0.0323
same,solubility (mole fraction),"in ethanol, 313.15 K",0.0371
same,solubility (mole fraction),"in ethanol, 318.15 K",0.043
same,solubility (mole fraction),"in ethanol, 323.15 K",0.0493
same,solubility (mole fraction),"in ethyl acetate, 278.15 K",0.0193
same,solubility (mole fraction),"in ethyl acetate, 283.15 K",0.0244
same,solubility (mole fraction),"in ethyl acetate, 288.15 K",0.032
same,solubility (mole fraction),"in ethyl acetate, 293.15 K",0.0418
same,solubility (mole fraction),"in ethyl acetate, 298.15 K",0.0535
same,solubility (mole fraction),"in ethyl acetate, 303.15 K",0.0684
same,solubility (mole fraction),"in ethyl acetate, 308.15 K",0.0883
same,solubility (mole fraction),"in ethyl acetate, 313.15 K",0.113
same,solubility (mole fraction),"in ethyl acetate, 318.15 K",0.143
same,solubility (mole fraction),"in ethyl acetate, 323.15 K",0.177
same,solubility (mole fraction),"in ethylene glycol, 278.15 K",0.00179
same,solubility (mole fraction),"in ethylene glycol, 283.15 K",0.00229
same,solubility (mole fraction),"in ethylene glycol, 288.15 K",0.00281
same,solubility (mole fraction),"in ethylene glycol, 293.15 K",0.00363
same,solubility (mole fraction),"in ethylene glycol, 298.15 K",0.00453
same,solubility (mole fraction),"in ethylene glycol, 303.15 K",0.00573
same,solubility (mole fraction),"in ethylene glycol, 308.15 K",0.00737
same,solubility (mole fraction),"in ethylene glycol, 313.15 K",0.00926
same,solubility (mole fraction),"in ethylene glycol, 318.15 K",0.0118
same,solubility (mole fraction),"in ethylene glycol, 323.15 K",0.0158
same,solubility (mole fraction),"in isopropanol, 278.15 K",0.0111
same,solubility (mole fraction),"in isopropanol, 283.15 K",0.0123
same,solubility (mole fraction),"in isopropanol, 288.15 K",0.0145
same,solubility (mole fraction),"in isopropanol, 293.15 K",0.0175
same,solubility (mole fraction),"in isopropanol, 298.15 K",0.0208
same,solubility (mole fraction),"in isopropanol, 303.15 K",0.0252
same,solubility (mole fraction),"in isopropanol, 308.15 K",0.0296
same,solubility (mole fraction),"in isopropanol, 313.15 K",0.0352
same,solubility (mole fraction),"in isopropanol, 318.15 K",0.0406
same,solubility (mole fraction),"in isopropanol, 323.15 K",0.0463
same,solubility (mole fraction),"in methanol, 278.15 K",0.0158
same,solubility (mole fraction),"in methanol, 283.15 K",0.017
same,solubility (mole fraction),"in methanol, 288.15 K",0.0199
same,solubility (mole fraction),"in methanol, 293.15 K",0.0239
same,solubility (mole fraction),"in methanol, 298.15 K",0.0287
same,solubility (mole fraction),"in methanol, 303.15 K",0.034
same,solubility (mole fraction),"in methanol, 308.15 K",0.0403
same,solubility (mole fraction),"in methanol, 313.15 K",0.0479
same,solubility (mole fraction),"in methanol, 318.15 K",0.056
same,solubility (mole fraction),"in methanol, 323.15 K",0.0667
same,solubility (mole fraction),"in n-butanol, 278.15 K",0.00963
same,solubility (mole fraction),"in n-butanol, 283.15 K",0.0107
same,solubility (mole fraction),"in n-butanol, 288.15 K",0.0124
same,solubility (mole fraction),"in n-butanol, 293.15 K",0.0146
same,solubility (mole fraction),"in n-butanol, 298.15 K",0.0177
same,solubility (mole fraction),"in n-butanol, 303.15 K",0.0215
same,solubility (mole fraction),"in n-butanol, 308.15 K",0.0257
same,solubility (mole fraction),"in n-butanol, 313.15 K",0.0301
same,solubility (mole fraction),"in n-butanol, 318.15 K",0.0357
same,solubility (mole fraction),"in n-butanol, 323.15 K",0.0427
same,solubility (mole fraction),"in n-propanol, 278.15 K",0.0119
same,solubility (mole fraction),"in n-propanol, 283.15 K",0.013
same,solubility (mole fraction),"in n-propanol, 288.15 K",0.0152
same,solubility (mole fraction),"in n-propanol, 293.15 K",0.018
same,solubility (mole fraction),"in n-propanol, 298.15 K",0.0217
same,solubility (mole fraction),"in n-propanol, 303.15 K",0.0259
same,solubility (mole fraction),"in n-propanol, 308.15 K",0.0308
same,solubility (mole fraction),"in n-propanol, 313.15 K",0.0362
same,solubility (mole fraction),"in n-propanol, 318.15 K",0.042
same,solubility (mole fraction),"in n-propanol, 323.15 K",0.0481
same,solubility (mole fraction),"in water, 278.15 K",8e-06
same,solubility (mole fraction),"in water, 283.15 K",1e-05
same,solubility (mole fraction),"in water, 288.15 K",1.4e-05
same,solubility (mole fraction),"in water, 293.15 K",1.9e-05
same,solubility (mole fraction),"in water, 298.15 K",2.5e-05
same,solubility (mole fraction),"in water, 303.15 K",3.3e-05
same,solubility (mole fraction),"in water, 308.15 K",4.3e-05
same,solubility (mole fraction),"in water, 313.15 K",5.5e-05
same,solubility (mole fraction),"in water, 318.15 K",7e-05
same,solubility (mole fraction),"in water, 323.15 K",8.6e-05
